Measured values: US11447479B2, “Compounds active towards nuclear receptors” (NUEVOLUTION A/S, priority 2019, dated 2022)
Like-named read-outs stand apart in the source and are kept apart here.

Target: T1, RORγ (Homo sapiens, UniProt P51449)
T1 construct: Gal4 (galactose-responsive transcription factor); expressed in transfected cells; host or cells: HEK293
T1 sequence (P51449 269-508 limits assumed): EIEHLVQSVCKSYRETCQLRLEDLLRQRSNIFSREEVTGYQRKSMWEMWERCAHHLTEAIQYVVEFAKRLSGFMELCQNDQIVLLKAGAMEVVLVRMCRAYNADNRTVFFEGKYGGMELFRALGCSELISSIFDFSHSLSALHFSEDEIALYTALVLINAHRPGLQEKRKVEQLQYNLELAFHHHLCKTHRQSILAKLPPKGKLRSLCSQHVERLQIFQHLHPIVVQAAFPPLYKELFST
Assay: RORγ Reporter Assay (Gal4)
Assay type: cell-based
Experimental: RORγ Reporter Assay (Gal4)
The HEK293 cell line is co-transfected transiently with two plasmids, one with the RORγ ligand-binding domain fused to galactose-responsive transcription factor (Gal4), and the other with the luciferase reporter gene and Gal binding sites (UAS). This construction allows to determine the RORγ activity in a cellular system through the measurement of luminescence.
A suspension of RORγ reporter cells was dispensed into plates and cultured 2 h at 37° C. and 5% CO2. Media formulation consisted in DMEM/F-12 medium (Gibco) supplemented with 10% heat inactivated FBS (Sigma-Aldrich), non-essential aminoacids (Sigma-Aldrich), 2 mM Glutamax (Gibco) and 100 U/mF penicillin (Sigma-Aldrich). Dose-response curves with compounds were prepared in 100% DMSO and further diluted […] in culture medium. Compound solutions were added to the plate containing cells (final DMSO concentration of 0.1%) and incubated for 24 h at 37° C. and 5% CO2. Luciferase detection reagent was added to each well, and relative light units […] were quantified from each assay well using a plate reading luminometer.
Values of average RFU±S.D. were computed for all treatment sets, followed by the calculations of percent-reduction of RORγ activity in response to respective test compound. The following formula was used: activity=100*[1−[x test compound/average vehicle]where the theoretical minimum reduction (0% reduction).

[1] = HEK293 co-transfected with RORγ LBD-Gal4 and luciferase reporter, 24 h incubation, absolute IC50, read-out: IC50

SMILES	IC50 [1] [nM]	IC50 (comparison compounds from WO2016020295, Tables 5 and 6, read-out: Gal4 assay IC50) [nM]
NC(=O)CN1CCC(CNc2ncnc(N3CCCC3c3ccc(C(F)(F)F)cc3O)c2F)CC1 (centres unmarked) [Example H6-26, 2-(4-(((5-fluoro-6-(2-(2-hydroxy-4-(trifluoromethyl)phenyl)pyrrolidin-1-yl)pyrimidin-4-yl)amino)methyl)piperidin-1-yl)acetamide]	440	
NC(=O)CN1CC[C@@H](CNc2ncnc(N3CCOC[C@@H]3c3ccc(C(F)(F)F)cc3)c2F)[C@H](O)C1 (single isomer, unassigned) [Example H6-7-2, 2-((3R*,4R*)-4-(((5-fluoro-6-((S)-3-(4-(trifluoromethyl)phenyl)morpholino)pyrimidin-4-yl)amino)methyl)-3-hydroxypiperidin-1-yl)acetamide]	35	
CC(C(N)=O)N1CCC(CNc2ncnc(N3CCOC[C@@H]3c3ccc(C(F)(F)F)cn3)c2F)CC1 (some centres unmarked) [Example H6-1]	910	
NC(=O)CC1CCC(CNc2ncnc(N3CCOC[C@@H]3c3ccc(C(F)(F)F)cc3)c2F)CC1 (some centres unmarked) [Example 206, reference compound]		< 1000
NC(=O)CN1CCC(O)(CNc2ncnc(N3CC(F)(F)C[C@@H]3c3ccc(C(F)(F)F)cc3)c2F)CC1 [Example H6-14, (R)-2-(4-(((6-(4,4-difluoro-2-(4-(trifluoromethyl)phenyl)pyrrolidin-1-yl)-5-fluoropyrimidin-4-yl)amino)methyl)-4-hydroxypiperidin-1-yl)acetamide]	230	
NC(=O)CN1CC[C@H](CNc2ncnc(N3CC(F)(F)C[C@@H]3c3ccc(C(F)(F)F)cc3)c2F)[C@@H](F)C1 (single isomer, unassigned) [Example H6-16-2, 2-((3R*,4R*)-4-(((6-((R)-4,4-difluoro-2-(4-(trifluoromethyl)phenyl)pyrrolidin-1-yl)-5-fluoropyrimidin-4-yl)amino)methyl)-3-fluoropiperidin-1-yl)acetamide]	10	
NC(=O)CN1CCC(CNc2ncnc(N3CCOC[C@@H]3c3ccc(C(F)(F)F)cn3)c2F)C(F)(F)C1 (single isomer, unassigned) [Example H6-11-1, 2-((R*)-3,3-difluoro-4-(((5-fluoro-6-((S)-3-(5-(trifluoromethyl)pyridin-2-yl)morpholino)pyrimidin-4-yl)amino)methyl)piperidin-1-yl)acetamide]	360	
NC(=O)CN1CC[C@H](CNc2ncnc(N3CCOC[C@@H]3c3ccc(C(F)(F)F)cc3)c2F)[C@@H](F)C1 (single isomer, unassigned) [Example H6-10-2, 2-((3R*,4R*)-3-fluoro-4-(((5-fluoro-6-((S)-3-(4-(trifluoromethyl)phenyl)morpholino)pyrimidin-4-yl)amino)methyl)piperidin-1-yl)acetamide]	13	
CC(C)(C(N)=O)N1CCC(CNc2ncnc(N3CCOC[C@@H]3c3ccc(C(F)(F)F)cn3)c2F)CC1 [Example H6-3, (S)-2-(4-(((5-fluoro-6-(3-(5-(trifluoromethyl)pyridin-2-yl)morpholino)pyrimidin-4-yl)amino)methyl)piperidin-1-yl)-2-methylpropanamide]	280	
NC(=O)CN1CCC(CNc2ncnc(N3CCOC[C@@H]3c3ccc(C(F)(F)F)cn3)c2F)CC1 [Example H6-2, (S)-2-(4-(((5-fluoro-6-(3-(5-(trifluoromethyl)pyridin-2-yl)morpholino)pyrimidin-4-yl)amino)methyl)piperidin-1-yl)acetamide]	330	
NC(=O)CN1CC[C@H](CNc2ncnc(N3CC(F)(F)C[C@@H]3c3ccc(C(F)(F)F)cn3)c2F)[C@@H](F)C1 (single isomer, unassigned) [Example H6-18-2, 2-((3R*,4R*)-4-(((6-((R)-4,4-difluoro-2-(5-(trifluoromethyl)pyridin-2-yl)pyrrolidin-1-yl)-5-fluoropyrimidin-4-yl)amino)methyl)-3-fluoropiperidin-1-yl)acetamide]	60	
